Counter-ions that a name gives are not always drawn.

Series [1] is described as follows: Drug release (dissolution) testing of TPR beads in two-stage medium, lag-time. It is filed as physicochemical. The following applies: expected from higher alkalinity, given coating conditions. The protocol:
Dissolution testing of IR beads and enteric coated beads (for acid resistance testing) is conducted with a USP Apparatus 1 (baskets at 100 rpm) or Apparatus 2 (paddles at 50 rpm) in 900 mL of 0.1N HCl at 37° C. while the dissolution testing of TPR beads is conducted in a USP apparatus using a two-stage dissolution medium (first 2 hours in 700 mL of 0.1N HCl at 37° C. followed by dissolution testing at pH=6.8 obtained by the addition of 200 mL of pH modifier). Drug release with time is determined by HPLC on samples pulled at selected intervals.
Drug Release Testing: The drug release profiles were generated by dissolution testing per US Pharmacopoeia method (Apparatus 1 with baskets at 100 rpm or Apparatus 2 with paddles at 50 rpm) using 700 mL of p H 1.2 buffer for 2 hours followed by testing in 900 mL of pH 6.8 for the remaining time-points). The IR and enteric-coated beads were tested in 900 mL of 0.1N HCl for 1 and 1.5 hrs, respectively. The samples pulled at different time-points were quantified by HPLC.

The nature of series [2]: pH of representative drugs suspended in water. The conditions noted are these: for pH when suspended in purified water (range over the concentrations of Table 1): range over tested solid contents; for Acidity/Alkalinity: drug suspended in water. It is filed as physicochemical.
The mark [3] stands for this setting: drug concentration (solid content) 0.1 mg/mL in water.
The mark [4] stands for this setting: drug concentration (solid content) 1.0 mg/mL in water.
Setting [5] is: drug concentration (solid content) 10 mg/mL in water.
[6] abbreviates: drug concentration (solid content) 0.2 mg/mL in water.
Where [7] appears, read: drug concentration (solid content) 2.0 mg/mL in water.
Where [8] appears, read: drug concentration (solid content) 20 mg/mL in water.

Turning to `CC(C)NCC(O)COc1ccc(CC(N)=O)cc1` (stereo not shown) [Atenolol], the “lag time relative to nizatidine” value in series [1] was “shorter lag time than nizatidine”. In addition, the figures for the “pH of Solution/Suspension” value in series [2] (setting [3]), in series [2] (setting [4]) and in series [2] (setting [5]) were “pH = 7.9”, “pH = 10.9” and “pH = 11.0”, respectively. Moreover, in series [2], the “pH when suspended in purified water (range over the concentrations of Table 1)” value (from here on “pH … (range over the concentrations of Table 1)”) is 7.9-11.0.

As to `CN(C)CCC=C1c2ccccc2C=Cc2ccccc21` [Cyclobenzaprine Hydrochloride], the “pH of Solution/Suspension” value is “pH = 6.1” in series [2] (setting [3]), “pH = 6.5” in series [2] (setting [4]) and “pH = 6.7” in series [2] (setting [5]). The Acidity/Alkalinity entry in series [2] is reported as “Acidic (exhibiting a pH of 7.0, or less, when suspended in water at a solid content of 2 mg/mL is designated as an acidic drug)”.

Turning to `CC(C)NCC(O)COc1cccc2ccccc12` (stereo not shown) [Propranolol Hydrochloride], the results for the “pH of Solution/Suspension” value in series [2] (setting [6]), in series [2] (setting [7]) and in series [2] (setting [8]) were “pH = 5.7”, “pH = 6.0” and “pH = 6.5”, respectively. Besides, in series [2], the Acidity/Alkalinity entry is “Acidic (exhibiting a pH of 7.0, or less, when suspended in water at a solid content of 2 mg/mL is designated as an acidic drug)”. Besides, the “pH … (range over the concentrations of Table 1)” value in series [2] was 5.7-6.5.

As to `CNC(=C[N+](=O)[O-])NCCSCc1csc(CN(C)C)n1` [Nizatidine], the figures for the “pH of Solution/Suspension” value in series [2] (setting [6]), in series [2] (setting [7]) and in series [2] (setting [8]) were “pH = 6.5”, “pH = 7.4” and “pH = 8.7”, respectively. Moreover, the Acidity/Alkalinity entry in series [2] was “Alkaline (an API exhibiting a pH of 7.0, or greater, is designated as an alkaline drug)”. Besides, the “pH … (range over the concentrations of Table 1)” value in series [2] is 6.5-8.7.

Values taken from US11147772B2, “Timed, pulsatile release systems” (Adare Pharmaceuticals, Inc., priority 2005, dated 2021).
